From US20150051283A1, “COMPOSITION AND METHOD FOR INHIBITION OF PKNG FROM MYCOBACTERIUM TUBERCULOSIS” (priority 2013, published 2015)

Tests used:
Assay type in all cases: biochemical
PknG [1] = biological target: T1, PknG (Mycobacterium tuberculosis, UniProt P9WI73); test: Reversibility of PknG inhibition by thiol reagents (DTT, GSH); conditions: for effect of thiol reagent per se on control PknG kinase activity: 42 mM DTT or 24 mM GSH
T1 construct: Full-length PknG was overexpressed in Escherichia coli BL21(DE3) cells; made in house; host or cells: Escherichia coli BL21(DE3)

PknG Rbx domain = biological target: T2, PknG Rbx domain (Mycobacterium tuberculosis, UniProt P9WI73); test: Iron release from Rbx domain of PknG (BPS spectrophotometric determination); conditions: 50 μM of OA-NO2
T2 construct: Full-length PknG was overexpressed in Escherichia coli BL21(DE3) cells; made in house; host or cells: Escherichia coli BL21(DE3)

PknG [2] = biological target: T1, PknG
PknG [3] = biological target: T1, PknG; test: Time course of PknG inhibition, Kinase Glo Plus luminescent kinase assay; conditions: PknG 10 μM, 50 μM OA-NO2, pre-incubation 0 to 30 min, 25° C
Procedure: (§1) FIGS. 4A-4D are a series of graphs depicting PknG kinase activity inhibition by OA-NO2, in which FIG. 4A depicts GarA phosphorylation by PknG by linear MALDI-TOF mass spectrum of: GarA (m/z 17145, dashed line), GarA phosphorylated by PknG using a molar ratio PknG:GarA of 1:20 (m/z 17222, grey line) and GarA phosphorylated by PknG pretreated with 50 μM OA-NO2 for 10 minutes (m/z 17143, black line), FIG. 4B is a series of three panels depicting PknG autophosphorylation with an upper panel illustrating linear MALDI-TOF spectrum of native PknG after tryptic digestion showing basal autophoshporylation pattern. Unphosphorylated peptide (m/z 5395.8), monophosphorylated (m/z 5475.4) and diphosphorylated species (m/z 5555.1) are detected as expected, a middle panel depicting linear MALDI-TOF spectrum of PknG after incubation with ATP and Mn^2+ and further typtic digestion (autophoshorylation positive control). […] After 10 minutes of incubation enzyme activities were determined. Samples were analyzed in triplicates; and FIG. 4D depicts time dependent inhibition of PknG by OA-NO2. […] At the indicated time points aliquots of control and treated PknG were removed, and enzyme inhibition was determined using Kinase Glo® by comparison with control activity. Samples were analyzed in triplicates. […]

PknG [4] = biological target: T1, PknG; test: PknG autophosphorylation (MALDI-TOF MS of tryptic phosphopeptides); conditions: 30 μM, 10 min before autophosphorylation reaction
Procedure: as §1

T1 sequence (P9WI73 whole entry): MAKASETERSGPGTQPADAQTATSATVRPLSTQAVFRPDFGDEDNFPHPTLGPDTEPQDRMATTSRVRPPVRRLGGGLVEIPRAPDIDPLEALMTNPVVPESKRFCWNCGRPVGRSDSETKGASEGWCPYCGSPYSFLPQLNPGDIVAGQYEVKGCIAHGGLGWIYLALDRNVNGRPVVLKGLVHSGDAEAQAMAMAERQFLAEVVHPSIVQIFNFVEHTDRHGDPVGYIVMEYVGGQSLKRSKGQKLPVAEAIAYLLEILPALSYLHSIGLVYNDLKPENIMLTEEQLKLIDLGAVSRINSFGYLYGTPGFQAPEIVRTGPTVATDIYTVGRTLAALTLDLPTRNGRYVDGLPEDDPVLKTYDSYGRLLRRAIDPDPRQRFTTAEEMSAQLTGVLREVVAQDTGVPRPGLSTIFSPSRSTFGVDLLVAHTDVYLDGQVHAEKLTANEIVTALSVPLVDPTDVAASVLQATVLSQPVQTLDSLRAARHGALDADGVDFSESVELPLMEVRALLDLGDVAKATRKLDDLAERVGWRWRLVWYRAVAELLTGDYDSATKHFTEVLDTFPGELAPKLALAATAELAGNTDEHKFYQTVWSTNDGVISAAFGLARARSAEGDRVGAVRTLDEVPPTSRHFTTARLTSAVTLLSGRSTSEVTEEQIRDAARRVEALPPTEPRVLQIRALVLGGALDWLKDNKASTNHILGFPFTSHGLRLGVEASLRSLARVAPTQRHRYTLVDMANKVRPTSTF
T2 sequence (P9WI73 whole entry, the tested form may be a part): as the sequence (P9WI73 whole entry) above

9- and 10-nitro-octadeca-9-cis-enoic acid [OA-NO2]
effect of OA-NO2 on PknG activity (reversibility) (PknG [1]): irreversible | iron present at the Rbx domain released (PknG Rbx domain): 70% | ability to phosphorylate GarA (PknG [2]; 30 μM, molar ratio OA-NO2:PknG 3:1, 10 minutes of preincubation): clearly decreased | IC50 (PknG [2]; PknG 8 μM, OA-NO2 0 to 80 μM, 10 min pre-incubation, 70 mM ammonium bicarbonate pH 8.0, 25° C, read-out: concentration at which 50% of enzyme inhibition was reached): 35 µM | kinase activity of PknG (PknG [2]; micromolar concentrations, molar excess ranging from 1:1 to 1:3): noticeably inhibited | kinase activity versus pre-incubation time (PknG [3]): decreased kinase activity in a time-dependent manner | autocatalytic (autophosphorylation) activity (PknG [4]): inhibited

O[C@@H](CS)[C@@H](O)CS [DTT]
effect of thiol reagent per se on control PknG kinase activity (PknG [1]): no effect

N[C@@H](CCC(=O)N[C@@H](CS)C(=O)NCC(=O)O)C(=O)O [GSH]
effect of thiol reagent per se on control PknG kinase activity (PknG [1]): no effect

NC(=O)CI [IAM, iodoacetamide, reference compound]
effect on kinase activity (PknG [2]; IAM treatment (up to 150 μM, PknG 10 μM), only free Cys156 modified): without affecting kinase activity

CCCCCCCCC=CCCCCCCCC(=O)O [oleic acid, 9-octadecenoic acid, reference compound]
effect on kinase activity (control) (PknG [2]; equivalent concentrations to OA-NO2, data not shown): no effect
